From patent US5534498A, “Trypsin inhibitors” (Corvas International, Inc., priority 1993, dated 1996)
pIC50, pKi: −log10 of the molar value. Non-standard residues stand in square brackets, D forms with d. Residues, ends and D or L forms follow the SMILES beside them. *: point of attachment. Boc = CC(C)(C)OC(=O)*

Legend:
[1] = target: bovine and human pancreatic trypsin; assay: Potency: determination of inhibitor constant Ki against trypsin (S-2222 substrate, Dixon plot); format: biochemical; settings: 37° C., TBS pH 7.4, 15 min preincubation, read-out: Ki For Peptide Aldehydes Against Trypsin
Protocol: The potency and specificity of the compounds of the present invention are determined by in vitro assay methods well known in the art. […] Specifically, the inhibitor constant, Ki, of the compounds can be determined by the method of Dixon, Biochem. J. 55:170 (1953). The specificity is assessed by determination of the concentration, IC50, of compound required to give 50% inhibition of the enzymatic activity of the coagulation enzymes, kallikrein, factor XIa, factor VIIa, factor Xa, thrombin; the fibrinolysis enzymes, plasmin, tissue plasminogen activator (tPA), and urokinase (UK), and the anticoagulation enzyme, protein C. Specificity is found when the concentration of compound giving 50% inhibition of trypsin is low relative to the concentration required to give like inhibition of the other enzymes.
Enzyme activity was determined using as substrate S-2222 [N-benzoyl-L-isoleucyl-L-glutamyl-glycyl-L-arginine-p-nitroanilide hydrochloride where glutamyl side chain is 50% carboxylic acid and 50% methyl ester], purchased from Kabi Diagnostica. The substrate was made up in deionized water prior to use.
A 96-well microtiter plate was prepared for use in the assay by incubating each well with 300 μL of 1% bovine serum albumin (in deionized water) for 30 minutes at 37° C., and washing three times with deionized water.
To each well was added 50 μL TBS (0.1M Tris, 0.14M NaCl, pH 7.4), 50 μL 2.5 nM trypsin and 50 μL peptide aldehyde in TBS or TBS alone. After incubating for 15 minutes at 37° C., 50 μL of S-2222 (at 37° C.) at a specified concentration was added to each well. After mixing, the rate of substramte turnover at 37° C. was measured for 30 minutes at 405 nm (generation of p-nitroaniline). The initial S-2222 concentrations in the assay mixture were 0.45, 0.23, 0.11, 0.056, and 0.028 mM.
Ki was determined graphically using a Dixon plot, as described in Dixon, Biochem. J. 55:170 (1953).

Factor VIIa:rTF complex = target: T1, Factor VIIa:rTF complex (Homo sapiens, UniProt P08709); assay: Factor VIIa assay (S-2288 substrate); format: biochemical; settings: for Calculated % Selectivity VIIa: [IC50 for Trypsin/IC50 for other enzyme]×100, lower = more trypsin selective
T1 construct: 2.5 ml 400 nMhuman Factor VIIa
T1 sequence (P08709 213-466 limits assumed): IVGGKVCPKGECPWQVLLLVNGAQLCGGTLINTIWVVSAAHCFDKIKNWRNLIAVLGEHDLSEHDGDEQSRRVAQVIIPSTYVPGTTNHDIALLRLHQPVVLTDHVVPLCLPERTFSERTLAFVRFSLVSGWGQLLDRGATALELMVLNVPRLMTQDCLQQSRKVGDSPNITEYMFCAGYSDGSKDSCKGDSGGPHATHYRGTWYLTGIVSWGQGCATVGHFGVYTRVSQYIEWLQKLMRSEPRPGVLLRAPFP
T1 sequence (P08709 61-212 partner limits assumed): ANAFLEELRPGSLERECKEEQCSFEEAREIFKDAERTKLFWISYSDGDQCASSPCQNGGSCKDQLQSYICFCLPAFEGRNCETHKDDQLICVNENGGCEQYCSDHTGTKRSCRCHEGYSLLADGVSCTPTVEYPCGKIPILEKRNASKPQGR
T1 sequence (P13726 33-295 partner): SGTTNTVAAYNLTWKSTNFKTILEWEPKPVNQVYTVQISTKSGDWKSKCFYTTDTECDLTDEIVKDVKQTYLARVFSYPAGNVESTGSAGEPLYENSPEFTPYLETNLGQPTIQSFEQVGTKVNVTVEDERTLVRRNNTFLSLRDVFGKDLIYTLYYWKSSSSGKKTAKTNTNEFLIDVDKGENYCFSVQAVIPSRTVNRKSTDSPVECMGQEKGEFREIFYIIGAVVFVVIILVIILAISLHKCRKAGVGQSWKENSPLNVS
Protocol: (§1) The specificity of the peptide aldehydes (8 through 12) was determined in vitro by measurement of their IC50 against other enzymes involved in hemostasis. A specific concentration of enzyme and its substrate were challenged with varying concentrations of inhibitor. IC50 is that concentration of inhibitor giving 50% inhibition of substrate turnover, under the assay conditions. Specific assay procedures used are presented below.
(§2) 96-well microtiter plates were prepared for use in these assays by incubating each well with 300 μL 1% bovine serum albumin (in deionized water) for 30 minutes at 37° C., then washing three times with deionized water.
Enzyme activity was determined using as substrate, S-2288 [D-isoleucyl-L-prolyl-L-arginine-p-nitroanilide dihydrochloride], purchased from Kabi Diagnostica. The substrate was made up in deionized water prior to use.
Both solutions were then incubated for 30 minutes at room temperature before use in the assay.
The assay was run by combining in appropriate wells 50 μL inhibitor in TBS or TBS alone and 100 μL of Factor VIIa:rTF complex or background control, incubating this mixture for 30 minutes at room temperature, adding 50 μL of 2 mM S-2288, incubating for an additional 30 to 60 minutes at room temperature, then reading the absorbance of the wells at 405 nm on a microtiter plate reader set with background substraction at 650 nm.

human Factor XIa = target: T2, human Factor XIa (Homo sapiens, UniProt P03951); assay: Factor XIa assay (S-2366 substrate); format: biochemical; settings: for pIC50: 30 min preincubation, room temperature, tested 0.025-25 μM, Inact. = no inhibition at highest concentration; for Calculated % Selectivity XIa: [IC50 for Trypsin/IC50 for other enzyme]×100, lower = more trypsin selective
T2 construct: 50 μL of 5 nM human Factor XIa
T2 sequence (P03951 388-625 limits assumed): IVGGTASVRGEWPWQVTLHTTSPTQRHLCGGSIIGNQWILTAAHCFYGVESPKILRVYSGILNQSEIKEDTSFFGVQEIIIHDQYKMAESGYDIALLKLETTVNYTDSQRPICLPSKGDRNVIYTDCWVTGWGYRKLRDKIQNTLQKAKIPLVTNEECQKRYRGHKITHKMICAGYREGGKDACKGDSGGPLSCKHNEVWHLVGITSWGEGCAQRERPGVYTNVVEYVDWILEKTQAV
T2 sequence (P03951 19-387 partner limits assumed): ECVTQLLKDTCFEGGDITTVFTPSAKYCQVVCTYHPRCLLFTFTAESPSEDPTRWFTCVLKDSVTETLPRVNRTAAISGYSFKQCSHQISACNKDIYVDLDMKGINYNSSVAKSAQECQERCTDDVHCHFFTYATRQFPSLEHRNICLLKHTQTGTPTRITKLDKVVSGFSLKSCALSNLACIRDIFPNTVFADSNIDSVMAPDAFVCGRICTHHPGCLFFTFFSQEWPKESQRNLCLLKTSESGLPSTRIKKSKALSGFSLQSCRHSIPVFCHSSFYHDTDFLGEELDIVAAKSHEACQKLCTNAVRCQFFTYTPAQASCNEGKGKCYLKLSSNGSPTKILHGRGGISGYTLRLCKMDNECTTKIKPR
Protocol: as §1, with “IC50 is that concentration of inhibitor giving 50% inhibition of substrate turnover, under the assay conditions.” left out
as §2
(§3) The substrate was made up in deionized water prior to use.

[2] = target: recombinant tissue plasminogen activator (Homo sapiens, UniProt P00750); assay: Tissue plasminogen activator assay (S-2288 substrate); format: biochemical; settings: for pIC50: 30 min preincubation, room temperature, tested 0.025-25 μM, Inact. = no inhibition at highest concentration; for Calculated % Selectivity tPA: [IC50 for Trypsin/IC50 for other enzyme]×100, lower = more trypsin selective
Chain of recombinant tissue plasminogen activator (P00750 36-562): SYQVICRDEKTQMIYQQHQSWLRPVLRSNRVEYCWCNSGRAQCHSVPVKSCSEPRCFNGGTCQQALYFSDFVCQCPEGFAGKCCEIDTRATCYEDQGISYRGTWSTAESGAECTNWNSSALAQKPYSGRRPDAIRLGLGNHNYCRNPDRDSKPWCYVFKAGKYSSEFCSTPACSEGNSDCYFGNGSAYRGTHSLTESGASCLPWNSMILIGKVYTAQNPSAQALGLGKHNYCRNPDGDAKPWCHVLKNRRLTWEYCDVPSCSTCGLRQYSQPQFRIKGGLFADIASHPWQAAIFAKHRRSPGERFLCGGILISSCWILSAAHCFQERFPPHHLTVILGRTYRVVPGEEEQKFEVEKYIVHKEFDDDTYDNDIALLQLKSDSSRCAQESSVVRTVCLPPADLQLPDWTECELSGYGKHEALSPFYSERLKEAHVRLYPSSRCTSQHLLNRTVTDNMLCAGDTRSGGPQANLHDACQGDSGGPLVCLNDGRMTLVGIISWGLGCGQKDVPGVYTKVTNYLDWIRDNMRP
Protocol: as §1, with “IC50 is that concentration of inhibitor giving 50% inhibition of substrate turnover, under the assay conditions.” left out
as §2, §3

human kallekrein = target: T3, human kallekrein (Homo sapiens, UniProt P03952); assay: Kallikrein assay (S-2302 substrate); format: biochemical; settings: for pIC50: 30 min preincubation, room temperature, tested 0.025-25 μM, Inact. = no inhibition at highest concentration; for Calculated % Selectivity Kallikrein: [IC50 for Trypsin/IC50 for other enzyme]×100, lower = more trypsin selective
T3 construct: 50 μL of 4 to 9 nM human kallekrein
T3 sequence (P03952 391-638 limits assumed): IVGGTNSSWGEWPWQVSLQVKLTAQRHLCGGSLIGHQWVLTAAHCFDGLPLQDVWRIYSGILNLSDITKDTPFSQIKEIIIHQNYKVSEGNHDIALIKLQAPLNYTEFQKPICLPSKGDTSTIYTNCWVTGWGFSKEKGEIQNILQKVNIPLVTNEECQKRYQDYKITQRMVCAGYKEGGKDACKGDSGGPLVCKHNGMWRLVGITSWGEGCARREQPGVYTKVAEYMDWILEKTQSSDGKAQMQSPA
T3 sequence (P03952 20-390 partner limits assumed): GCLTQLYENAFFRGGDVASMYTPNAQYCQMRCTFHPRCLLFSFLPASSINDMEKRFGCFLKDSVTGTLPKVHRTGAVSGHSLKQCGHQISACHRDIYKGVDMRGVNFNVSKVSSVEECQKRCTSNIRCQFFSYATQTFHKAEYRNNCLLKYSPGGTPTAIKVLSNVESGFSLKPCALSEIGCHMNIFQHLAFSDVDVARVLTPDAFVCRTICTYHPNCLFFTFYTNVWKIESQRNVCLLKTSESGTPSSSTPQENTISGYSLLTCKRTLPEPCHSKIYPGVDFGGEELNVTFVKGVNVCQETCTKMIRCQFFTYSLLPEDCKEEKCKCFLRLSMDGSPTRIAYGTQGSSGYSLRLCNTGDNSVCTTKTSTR
Protocol: as §1, with “IC50 is that concentration of inhibitor giving 50% inhibition of substrate turnover, under the assay conditions.” left out
as §2, §3

human Factor Xa = target: T4, human Factor Xa (Homo sapiens, UniProt P00742); assay: Factor Xa assay (Pefachrome Xa substrate); format: biochemical; settings: for pIC50: 30 min preincubation, room temperature, tested 0.025-25 μM, Inact. = no inhibition at highest concentration; for Calculated % Selectivity Xa: [IC50 for Trypsin/IC50 for other enzyme]×100, lower = more trypsin selective
T4 construct: 50 μL 30 nM human Factor Xa
T4 sequence (P00742 235-488 limits assumed): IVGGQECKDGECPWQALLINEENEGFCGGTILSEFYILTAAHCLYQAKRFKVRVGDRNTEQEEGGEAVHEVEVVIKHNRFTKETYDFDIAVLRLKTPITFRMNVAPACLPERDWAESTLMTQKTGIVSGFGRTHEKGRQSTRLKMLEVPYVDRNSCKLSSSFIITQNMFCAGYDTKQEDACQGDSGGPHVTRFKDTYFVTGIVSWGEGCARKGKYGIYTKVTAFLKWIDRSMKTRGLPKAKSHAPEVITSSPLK
T4 sequence (P00742 41-179 partner limits assumed): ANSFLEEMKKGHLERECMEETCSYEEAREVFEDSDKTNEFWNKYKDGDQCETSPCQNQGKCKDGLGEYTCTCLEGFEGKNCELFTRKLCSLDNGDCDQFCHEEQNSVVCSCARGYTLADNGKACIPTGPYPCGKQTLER
Protocol: as §1, with “IC50 is that concentration of inhibitor giving 50% inhibition of substrate turnover, under the assay conditions.” left out
as §2
Enzyme activity was determined using as substrate, Pefachrome Xa [N-methoxycarbonyl-D-cyclohexylalanyl-L-glycyl-L-arginine p-niroanilide acetate], purchased from Centerchem, Inc. The substrate was made up in deionized water prior to use.

[3] = target: T5, Activated human Protein C (Homo sapiens, UniProt P04070); assay: Protein C assay (Pefachrome PC substrate); format: biochemical; settings: for pIC50: 30 min preincubation, room temperature, tested 0.025-25 μM, Inact. = no inhibition at highest concentration; for Calculated % Selectivity Protein C: [IC50 for Trypsin/IC50 for other enzyme]×100, lower = more trypsin selective
T5 construct: from tissue
T5 sequence (P04070 212-461 limits assumed): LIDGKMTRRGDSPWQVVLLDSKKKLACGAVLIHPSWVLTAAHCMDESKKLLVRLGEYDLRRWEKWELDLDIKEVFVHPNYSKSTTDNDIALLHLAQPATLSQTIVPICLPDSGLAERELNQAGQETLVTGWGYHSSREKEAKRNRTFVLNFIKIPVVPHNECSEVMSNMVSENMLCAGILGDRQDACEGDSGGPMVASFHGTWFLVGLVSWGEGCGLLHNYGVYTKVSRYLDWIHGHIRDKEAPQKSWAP
T5 sequence (P04070 43-197 partner limits assumed): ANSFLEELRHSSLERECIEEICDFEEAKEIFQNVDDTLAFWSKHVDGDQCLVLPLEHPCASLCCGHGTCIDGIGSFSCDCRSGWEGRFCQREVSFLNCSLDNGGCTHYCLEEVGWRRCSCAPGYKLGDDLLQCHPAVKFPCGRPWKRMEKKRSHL
Protocol: as §1, with “IC50 is that concentration of inhibitor giving 50% inhibition of substrate turnover, under the assay conditions.” left out
as §2
Enzyme activity was determined using as substrate, Pefachrome PC [δ-carbobenzoloxy-D-lysyl-L-prolyl-L-arginine-p-nitroanilide], purchased from Centerchem, Inc. The substrate was made up in deionized water prior to use. Protac used to activate Protein C was obtained from American Diagnostics.

bovine trypsin = target: T6, bovine trypsin (Bos taurus, UniProt P00760); assay: Trypsin assay, IC50 (S-2222 substrate); format: biochemical; settings: for pIC50: 30 min preincubation, room temperature, tested 0.025-25 μM; for Calculated % Selectivity Trypsin: trypsin relative to itself (reference, 100 by definition)
T6 sequence (P00760 24-246): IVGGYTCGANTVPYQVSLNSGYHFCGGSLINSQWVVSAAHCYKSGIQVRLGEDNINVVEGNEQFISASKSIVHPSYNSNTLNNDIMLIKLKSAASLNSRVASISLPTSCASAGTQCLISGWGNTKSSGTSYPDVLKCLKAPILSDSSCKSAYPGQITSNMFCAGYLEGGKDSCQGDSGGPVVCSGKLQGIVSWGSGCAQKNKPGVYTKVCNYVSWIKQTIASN
Protocol: as §1, with “IC50 is that concentration of inhibitor giving 50% inhibition of substrate turnover, under the assay conditions.” left out
as §2, §3

bovine thrombin = target: T7, bovine thrombin (Bos taurus, UniProt P00735); assay: Thrombin assay (S-2238 substrate); format: biochemical; settings: for Calculated % Selectivity Thrombin: [IC50 for Trypsin/IC50 for other enzyme]×100, lower = more trypsin selective
T7 construct: 50 μL 20 nM bovine thrombin
Protocol: as §1, §2
Enzyme activity was determined using as substrate, S-2238 [D-phenylalanyl-L-pipecolyl-L-arginine-p-nitroanilide dihydrochloride], purchased from Kabi Diagnostica. The substrate was made up in deionized water prior to use.
(§4) The assay was run by combining in appropriate wells 50 μL TBS and 50 μL inhibitor in TBS or TBS alone and 50 μL 20 nM bovine thrombin (or TBS as background control), incubating this mixture for 30 minutes at room temperature, adding 50 μL 1 mM S-2238, incubating for an additional 30 minutes at room temperature, then reading the absorbance of the wells at 405 nm on a microtiter plate reader set with background substraction at 650 nm.

plasmin = plasmin (Homo sapiens, UniProt P00747); assay: Plasmin assay (S-2251 substrate); format: biochemical; parameters: 50 μL 25 nM human plasmin; settings: for pIC50: 30 min preincubation, room temperature, tested 0.025-25 μM, Inact. = no inhibition at highest concentration; for Calculated % Selectivity Plasmin: [IC50 for Trypsin/IC50 for other enzyme]×100, lower = more trypsin selective
Chain of plasmin (P00747 581-810 limits assumed): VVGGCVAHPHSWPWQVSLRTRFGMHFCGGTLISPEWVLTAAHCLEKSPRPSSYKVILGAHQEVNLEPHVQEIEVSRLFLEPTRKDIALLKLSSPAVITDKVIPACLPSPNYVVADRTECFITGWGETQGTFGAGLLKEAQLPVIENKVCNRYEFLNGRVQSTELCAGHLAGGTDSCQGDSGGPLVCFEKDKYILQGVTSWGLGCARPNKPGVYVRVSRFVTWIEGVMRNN
Chain of plasmin (P00747 97-580 partner limits assumed): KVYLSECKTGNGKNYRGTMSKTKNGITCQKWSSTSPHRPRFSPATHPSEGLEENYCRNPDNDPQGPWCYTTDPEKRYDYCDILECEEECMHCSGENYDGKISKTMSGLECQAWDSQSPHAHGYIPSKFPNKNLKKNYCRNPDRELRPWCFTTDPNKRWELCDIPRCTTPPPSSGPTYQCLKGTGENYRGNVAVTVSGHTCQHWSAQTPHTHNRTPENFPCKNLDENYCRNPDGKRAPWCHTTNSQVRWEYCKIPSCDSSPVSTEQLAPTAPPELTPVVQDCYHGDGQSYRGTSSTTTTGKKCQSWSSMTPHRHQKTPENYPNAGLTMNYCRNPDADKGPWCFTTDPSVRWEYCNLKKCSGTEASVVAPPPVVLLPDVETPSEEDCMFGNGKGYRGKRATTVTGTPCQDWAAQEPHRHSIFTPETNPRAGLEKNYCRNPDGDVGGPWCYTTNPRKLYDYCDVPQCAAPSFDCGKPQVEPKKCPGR
Protocol: as §1, with “IC50 is that concentration of inhibitor giving 50% inhibition of substrate turnover, under the assay conditions.” left out
as §2, §3

human urokinase = target: T8, human urokinase (Homo sapiens, UniProt P00749); assay: Urokinase assay (S-2444 substrate); format: biochemical; settings: for pIC50: 30 min preincubation, room temperature, tested 0.025-25 μM, Inact. = no inhibition at highest concentration; for Calculated % Selectivity UK: [IC50 for Trypsin/IC50 for other enzyme]×100, lower = more trypsin selective
T8 construct: 50 μL of 270 U/mL human urokinase
Protocol: as §1, §2
Enzyme activity was determined using as substrate S-2444 [L-pyroglutamyl-L-glycyl-L-arginine-p-nitroanilide hydrochloride], purchased from Kabi Diagnostica. The substrate was made up in deionized water prior to use.
as §4, with “μL” for “μL TBS and 50 μL”, “of 270 U/mL human urokinase” for “20 nM bovine thrombin”, “control) and 50 μL TBS,” for “control),”, “S-2444,” for “S-2238,”

[4] = tested on: acute pancreatitis induced in animal models; settings: literature reports; cited from earlier work
[5] = 30 min preincubation, room temperature, tested 0.025-25 μM, Inact. = no inhibition at highest concentration

pKi [1]	pIC50 (Factor VIIa:rTF complex; [5])	Calculated % Selectivity VIIa (Factor VIIa:rTF complex) [%]	pIC50 (human Factor XIa)	Calculated % Selectivity XIa (human Factor XIa) [%]	pIC50 [2]	Calculated % Selectivity tPA [2] [%]	pIC50 (human kallekrein)	Calculated % Selectivity Kallikrein (human kallekrein) [%]	pIC50 (human Factor Xa)	Calculated % Selectivity Xa (human Factor Xa) [%]	pIC50 [3]	Calculated % Selectivity Protein C [3] [%]	pIC50 (bovine trypsin)	Calculated % Selectivity Trypsin (bovine trypsin) [%]	pIC50 (bovine thrombin; [5])	Calculated % Selectivity Thrombin (bovine thrombin) [%]	pIC50 (plasmin)	Calculated % Selectivity Plasmin (plasmin) [%]	pIC50 (human urokinase)	Structure (SMILES)	other results
9.70	< 4.60	< 0.1	5.22	< 0.42	< 4.60	< 0.1	5.70	< 1.3	6.52	< 0.83	< 4.60	< 0.1	> 7.60	100	5.00	< 0.25	5.96	< 2	4.72	N=C(N)NCCC[C@@H](C=O)NC(=O)[C@@H]1CCCN1C(=O)[C@H](CC(=O)O)NC(=O)OC12CC3CC(CC(C3)C1)C2 [Compound 11, N-adamantyloxycarbonyl-L-AsP-L-Pro-L-argininal]	Calculated % Selectivity UK (human urokinase): < 0.1%
7.35		0	< 4.60	< 0.34	< 4.60	< 0.3	< 4.60	< 0.34	< 4.60	< 0.34	< 4.60	< 0.3	7.08	100		0	5.92	7	4.77	CC(C)(C)OC(=O)N[C@H](CC(=O)O)C(=O)N1CCC[C@H]1C(=O)N[C@H](C=O)CCCNC(=N)N [Compound 12, N-t-buyloxycarbonyl-D-Asp-L-Pro-L-argininal] (Boc-[dD]-Pro-Arg-aldehyde)	IC50 VIIA (Factor VIIa:rTF complex; [5]): Inact.; IC50 Thrombin (bovine thrombin; [5]): Inact.; Calculated % Selectivity UK (human urokinase): 0.5%
																				CN(C)C(=O)COC(=O)Cc1ccc(OC(=O)c2ccc(NC(=N)N)cc2)cc1.CS(=O)(=O)O [Foy-305, camostate]	efficacy in the treatment of acute pancreatitis induced in animal models [4]: effective to varying degrees
	5.92		> 7.60		6.43		> 7.60		5.22		7.08		> 7.60		6.68					N=C(N)c1ccc2cc(OC(=O)c3ccc(N=C(N)N)cc3)ccc2c1 [Futhan, 6-amidino-2-naphthyl-4-guanidino benzoate dimethanesulfonate, reference compound]	efficacy in the treatment of acute pancreatitis induced in animal models [4]: effective
